Reference: patent US20240207373A1, “CYCLIC PEPTIDES FROM THE C-TERMINUS OF ACETYLCHOLINESTERASE FOR TREATMENT OF SKIN DISORDERS AND FOR COSMETICAL USE” (priority 2020, published 2024)
Where a SMILES comes first, the peptide text is derived from it. Where no end group is shown, it is not given here.

Key:
HaCaT cell line = experiment: Cell viability (cell toxicity) in HaCaT cell line; assay type: cell-based, human; details: FIG. 3A
Excerpt: The inventors next examined the ability of the acetylcholinesterase-derived peptides, T30 and T15, to induce proliferation of the HaCaT cell line and also tested cell viability to determine cell toxicity of NBP-14, T15 and T30 to the HaCaT cell line.

[1] = system: keratinocyte cell line HaCaTs; experiment: Intracellular calcium influx in keratinocyte cell line HaCaTs; assay type: cell-based, human; details: in presence of T30, FIG. 2
Excerpt: As described in the examples, the inventors performed intracellular calcium imaging and cell proliferation assays on the keratinocyte cell line, HaCaTs, a widely used and characterized model for human keratinocytes.
The inventors examined the ability of the acetylcholinesterase-derived linear peptides, T30 and T15, and the cyclic peptide NBP-14, to induce intracellular calcium influx into the keratinocyte cell line, and the results are shown in FIG. 2.

Compound	cell viability / cytotoxic effects (HaCaT cell line)	inhibition of T30-induced intracellular calcium influx [1]
CSCC[C@@H]1NC(=O)[C@H](Cc2ccc(O)cc2)NC(=O)[C@H](CO)NC(=O)[C@H](CO)NC(=O)[C@H](Cc2c[nH]c3ccccc23)NC(=O)[C@H](CCCNC(=N)N)NC(=O)[C@H](Cc2c[nH]cn2)NC(=O)[C@H](Cc2ccccc2)NC(=O)[C@H](CCC(=O)O)NC(=O)[C@H](C)NC(=O)[C@H](CCCCN)NC(=O)[C@H](Cc2c[nH]c3ccccc23)NC(=O)[C@H](Cc2c[nH]cn2)NC(=O)[C@H](C(C)C)NC1=O [NBP-14] (cyclo(AEFHRWSSYMVHWK))	do not show induced significant cytotoxic effects	significantly inhibit the effects of T30
KAEFHRWSSYMVHWKNQFDHYSKQDRCSDL [T30]	do not show induced significant cytotoxic effects	–
NQFDHYSKQDRCSDL [T15]	do not show induced significant cytotoxic effects	–
